Several values for one entry are separate records, joined by “and”; a condition that tells them apart may be missing. Equal entries are not always repeated.
Legend:
S. furcifera adults = assay: Y-tube olfactometer behavioral trials; type: in vivo, Sogatella furcifera; conditions: odorant 50 µL/L vs hexane; adults
Outline: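 Single S. furcifera adults (2 days post-emergence, starved 0.5 h) chose between odorant (100 µL of 50 µL/L on filter paper) and hexane control in a glass Y-tube, charcoal-filtered humidified air 300 mL/min per arm, 25 ± 1 °C, 50% RH. Choice scored if insect passed half an arm and stayed >1 min within 10 min; 45 insects per compound, chi-squared test.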

SfurOBP1 = SfurOBP1 (Sogatella furcifera, UniProt V5T8N5); assay: biochemical; type: binding; conditions: for Fluorescence competitive binding assay, fluorescence intensity: OBP1, three replicate columns
Outline: (§1)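 K1-NPN came from titrating 2.0 µM protein (50 mM Tris-HCl, pH 7.4) with 1-NPN. Odorants at 2-20 µM then competed against 2.0 µM protein plus 2.0 µM 1-NPN for 2 min, with excitation at 337 nm and emission recorded over 390-490 nm. IC50 values were converted to Ki via Ki = IC50/(1 + [1-NPN]/K1-NPN).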

SfurOBP3 = SfurOBP3 (Sogatella furcifera, UniProt V5T818); assay: biochemical; type: binding; conditions: for Fluorescence competitive binding assay, fluorescence intensity: OBP3, three replicate columns
Outline: as §1

SfurOBP11 = SfurOBP11 (Sogatella furcifera, UniProt V5T6E3); assay: biochemical; type: binding
Outline: as §1

SfurOBP2 = SfurOBP2 (Sogatella furcifera, UniProt V5T759); assay: biochemical; type: binding
Outline: as §1

SfurOBP11, sequence (V5T6E3 entry or part of it): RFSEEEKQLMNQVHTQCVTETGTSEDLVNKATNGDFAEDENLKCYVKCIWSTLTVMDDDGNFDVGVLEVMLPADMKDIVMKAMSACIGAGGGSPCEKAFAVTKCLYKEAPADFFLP
SfurOBP1, sequence (V5T8N5 entry or part of it): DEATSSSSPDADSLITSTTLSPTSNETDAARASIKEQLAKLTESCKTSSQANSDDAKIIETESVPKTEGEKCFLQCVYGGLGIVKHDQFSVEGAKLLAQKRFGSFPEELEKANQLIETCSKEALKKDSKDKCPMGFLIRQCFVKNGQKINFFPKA
SfurOBP3, sequence (V5T818 entry or part of it): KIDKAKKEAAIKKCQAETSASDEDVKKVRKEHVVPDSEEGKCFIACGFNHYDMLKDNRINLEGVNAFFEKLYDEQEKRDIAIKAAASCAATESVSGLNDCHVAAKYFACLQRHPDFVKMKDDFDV
SfurOBP2, sequence (V5T759 entry or part of it): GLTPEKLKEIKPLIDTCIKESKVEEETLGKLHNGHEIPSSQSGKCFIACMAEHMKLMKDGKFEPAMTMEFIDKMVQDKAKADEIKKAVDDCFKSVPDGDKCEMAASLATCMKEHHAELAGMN

## CCC/C=C/CO [(E)-2-hexenol]
S. furcifera adults
  number of insects choosing hexane arm: 9
  number of insects choosing volatilies arm: 8
  number of insects failed (no choice): 24
SfurOBP1
  IC50: > 20 µM
SfurOBP1; ligand concentration 2 (μM)
  Fluorescence competitive binding assay, fluorescence intensity: 5821 and 6205 and 6589
SfurOBP1; ligand concentration 4 (μM)
  Fluorescence competitive binding assay, fluorescence intensity: 7444 and 7124 and 7270
SfurOBP1; ligand concentration 6 (μM)
  Fluorescence competitive binding assay, fluorescence intensity: 8585 and 7896 and 9273
SfurOBP1; ligand concentration 8 (μM)
  Fluorescence competitive binding assay, fluorescence intensity: 8091 and 7978 and 7865
SfurOBP1; ligand concentration 10 (μM)
  Fluorescence competitive binding assay, fluorescence intensity: 8122 and 7477 and 6720
SfurOBP1; ligand concentration 12 (μM)
  Fluorescence competitive binding assay, fluorescence intensity: 5971 and 6877 and 6423
SfurOBP1; ligand concentration 14 (μM)
  Fluorescence competitive binding assay, fluorescence intensity: 6112 and 6019 and 6107
SfurOBP1; ligand concentration 16 (μM)
  Fluorescence competitive binding assay, fluorescence intensity: 6252 and 5805 and 6056
SfurOBP1; ligand concentration 18 (μM)
  Fluorescence competitive binding assay, fluorescence intensity: 8503 and 8229 and 10760
SfurOBP1; ligand concentration 20 (μM)
  Fluorescence competitive binding assay, fluorescence intensity: 7495 and 8100 and 7787
SfurOBP3
  IC50: > 20 µM
SfurOBP3; ligand concentration 2
  Fluorescence competitive binding assay, fluorescence intensity: 55419 and 52631 and 56435
SfurOBP3; ligand concentration 4
  Fluorescence competitive binding assay, fluorescence intensity: 52848 and 53720 and 53070
SfurOBP3; ligand concentration 6
  Fluorescence competitive binding assay, fluorescence intensity: 56485 and 54348 and 51437
SfurOBP3; ligand concentration 8
  Fluorescence competitive binding assay, fluorescence intensity: 53820 and 44741 and 53024
SfurOBP3; ligand concentration 10
  Fluorescence competitive binding assay, fluorescence intensity: 50999 and 49511 and 49866
SfurOBP3; ligand concentration 12
  Fluorescence competitive binding assay, fluorescence intensity: 51314 and 45497 and 46649
SfurOBP3; ligand concentration 14
  Fluorescence competitive binding assay, fluorescence intensity: 46992 and 46379 and 46282
SfurOBP3; ligand concentration 16
  Fluorescence competitive binding assay, fluorescence intensity: 39521 and 39562 and 39433
SfurOBP3; ligand concentration 18
  Fluorescence competitive binding assay, fluorescence intensity: 45227 and 50180 and 45511
SfurOBP3; ligand concentration 20
  Fluorescence competitive binding assay, fluorescence intensity: 47692 and 45313 and 40014
SfurOBP11
  IC50: > 20 µM
SfurOBP11; ligand concentration 2, replicate 1
  Fluorescence intensity, fluorescence competitive binding assay, OBP11: 34795
SfurOBP11; ligand concentration 2, replicate 2
  Fluorescence intensity, fluorescence competitive binding assay, OBP11: 32362
SfurOBP11; ligand concentration 2, replicate 3
  Fluorescence intensity, fluorescence competitive binding assay, OBP11: 33570
SfurOBP11; ligand concentration 4, replicate 1
  Fluorescence intensity, fluorescence competitive binding assay, OBP11: 31605
SfurOBP11; ligand concentration 4, replicate 2
  Fluorescence intensity, fluorescence competitive binding assay, OBP11: 31826
SfurOBP11; ligand concentration 4, replicate 3
  Fluorescence intensity, fluorescence competitive binding assay, OBP11: 31807
SfurOBP11; ligand concentration 6, replicate 1
  Fluorescence intensity, fluorescence competitive binding assay, OBP11: 29600
SfurOBP11; ligand concentration 6, replicate 2
  Fluorescence intensity, fluorescence competitive binding assay, OBP11: 28910
SfurOBP11; ligand concentration 6, replicate 3
  Fluorescence intensity, fluorescence competitive binding assay, OBP11: 29255
SfurOBP11; ligand concentration 8, replicate 1
  Fluorescence intensity, fluorescence competitive binding assay, OBP11: 27040
SfurOBP11; ligand concentration 8, replicate 2
  Fluorescence intensity, fluorescence competitive binding assay, OBP11: 29546
SfurOBP11; ligand concentration 8, replicate 3
  Fluorescence intensity, fluorescence competitive binding assay, OBP11: 25961
SfurOBP11; ligand concentration 10, replicate 1
  Fluorescence intensity, fluorescence competitive binding assay, OBP11: 25687
SfurOBP11; ligand concentration 10, replicate 2
  Fluorescence intensity, fluorescence competitive binding assay, OBP11: 25600
SfurOBP11; ligand concentration 10, replicate 3
  Fluorescence intensity, fluorescence competitive binding assay, OBP11: 25774
SfurOBP11; ligand concentration 12, replicate 1
  Fluorescence intensity, fluorescence competitive binding assay, OBP11: 25617
SfurOBP11; ligand concentration 12, replicate 2
  Fluorescence intensity, fluorescence competitive binding assay, OBP11: 23726
SfurOBP11; ligand concentration 12, replicate 3
  Fluorescence intensity, fluorescence competitive binding assay, OBP11: 24242
SfurOBP11; ligand concentration 14, replicate 1
  Fluorescence intensity, fluorescence competitive binding assay, OBP11: 22896
SfurOBP11; ligand concentration 14, replicate 2
  Fluorescence intensity, fluorescence competitive binding assay, OBP11: 21710
SfurOBP11; ligand concentration 14, replicate 3
  Fluorescence intensity, fluorescence competitive binding assay, OBP11: 22816
SfurOBP11; ligand concentration 16, replicate 1
  Fluorescence intensity, fluorescence competitive binding assay, OBP11: 19721
SfurOBP11; ligand concentration 16, replicate 2
  Fluorescence intensity, fluorescence competitive binding assay, OBP11: 20050
SfurOBP11; ligand concentration 16, replicate 3
  Fluorescence intensity, fluorescence competitive binding assay, OBP11: 20211
SfurOBP11; ligand concentration 18, replicate 1
  Fluorescence intensity, fluorescence competitive binding assay, OBP11: 19470
SfurOBP11; ligand concentration 18, replicate 2
  Fluorescence intensity, fluorescence competitive binding assay, OBP11: 19537
SfurOBP11; ligand concentration 18, replicate 3
  Fluorescence intensity, fluorescence competitive binding assay, OBP11: 20671
SfurOBP11; ligand concentration 20, replicate 1
  Fluorescence intensity, fluorescence competitive binding assay, OBP11: 20038
SfurOBP11; ligand concentration 20, replicate 2
  Fluorescence intensity, fluorescence competitive binding assay, OBP11: 19843
SfurOBP11; ligand concentration 20, replicate 3
  Fluorescence intensity, fluorescence competitive binding assay, OBP11: 19956
SfurOBP2
  IC50: > 20 µM
SfurOBP2; ligand concentration 2 (unit not given), replicate column 1 of 3
  Fluorescence competitive binding assay, OBP2 (raw fluorescence reading): 18290
SfurOBP2; ligand concentration 2 (unit not given), replicate column 2 of 3
  Fluorescence competitive binding assay, OBP2 (raw fluorescence reading): 18447
SfurOBP2; ligand concentration 2 (unit not given), replicate column 3 of 3
  Fluorescence competitive binding assay, OBP2 (raw fluorescence reading): 18531
SfurOBP2; ligand concentration 4 (unit not given), replicate column 1 of 3
  Fluorescence competitive binding assay, OBP2 (raw fluorescence reading): 17418
SfurOBP2; ligand concentration 4 (unit not given), replicate column 2 of 3
  Fluorescence competitive binding assay, OBP2 (raw fluorescence reading): 17308
SfurOBP2; ligand concentration 4 (unit not given), replicate column 3 of 3
  Fluorescence competitive binding assay, OBP2 (raw fluorescence reading): 17228
SfurOBP2; ligand concentration 6 (unit not given), replicate column 1 of 3
  Fluorescence competitive binding assay, OBP2 (raw fluorescence reading): 16794
SfurOBP2; ligand concentration 6 (unit not given), replicate column 2 of 3
  Fluorescence competitive binding assay, OBP2 (raw fluorescence reading): 16314
SfurOBP2; ligand concentration 6 (unit not given), replicate column 3 of 3
  Fluorescence competitive binding assay, OBP2 (raw fluorescence reading): 16504
SfurOBP2; ligand concentration 8 (unit not given), replicate column 1 of 3
  Fluorescence competitive binding assay, OBP2 (raw fluorescence reading): 15464
SfurOBP2; ligand concentration 8 (unit not given), replicate column 2 of 3
  Fluorescence competitive binding assay, OBP2 (raw fluorescence reading): 15780
SfurOBP2; ligand concentration 8 (unit not given), replicate column 3 of 3
  Fluorescence competitive binding assay, OBP2 (raw fluorescence reading): 16125
SfurOBP2; ligand concentration 10 (unit not given), replicate column 1 of 3
  Fluorescence competitive binding assay, OBP2 (raw fluorescence reading): 15191
SfurOBP2; ligand concentration 10 (unit not given), replicate column 2 of 3
  Fluorescence competitive binding assay, OBP2 (raw fluorescence reading): 14875
SfurOBP2; ligand concentration 10 (unit not given), replicate column 3 of 3
  Fluorescence competitive binding assay, OBP2 (raw fluorescence reading): 15159
SfurOBP2; ligand concentration 12 (unit not given), replicate column 1 of 3
  Fluorescence competitive binding assay, OBP2 (raw fluorescence reading): 14300
SfurOBP2; ligand concentration 12 (unit not given), replicate column 2 of 3
  Fluorescence competitive binding assay, OBP2 (raw fluorescence reading): 14543
SfurOBP2; ligand concentration 12 (unit not given), replicate column 3 of 3
  Fluorescence competitive binding assay, OBP2 (raw fluorescence reading): 14192
SfurOBP2; ligand concentration 14 (unit not given), replicate column 1 of 3
  Fluorescence competitive binding assay, OBP2 (raw fluorescence reading): 13523
SfurOBP2; ligand concentration 14 (unit not given), replicate column 2 of 3
  Fluorescence competitive binding assay, OBP2 (raw fluorescence reading): 13764
SfurOBP2; ligand concentration 14 (unit not given), replicate column 3 of 3
  Fluorescence competitive binding assay, OBP2 (raw fluorescence reading): 13447
SfurOBP2; ligand concentration 16 (unit not given), replicate column 1 of 3
  Fluorescence competitive binding assay, OBP2 (raw fluorescence reading): 12677
SfurOBP2; ligand concentration 16 (unit not given), replicate column 2 of 3
  Fluorescence competitive binding assay, OBP2 (raw fluorescence reading): 12355
SfurOBP2; ligand concentration 16 (unit not given), replicate column 3 of 3
  Fluorescence competitive binding assay, OBP2 (raw fluorescence reading): 12095
SfurOBP2; ligand concentration 18 (unit not given), replicate column 1 of 3
  Fluorescence competitive binding assay, OBP2 (raw fluorescence reading): 11796
SfurOBP2; ligand concentration 18 (unit not given), replicate column 2 of 3
  Fluorescence competitive binding assay, OBP2 (raw fluorescence reading): 11817
SfurOBP2; ligand concentration 18 (unit not given), replicate column 3 of 3
  Fluorescence competitive binding assay, OBP2 (raw fluorescence reading): 11503
SfurOBP2; ligand concentration 20 (unit not given), replicate column 1 of 3
  Fluorescence competitive binding assay, OBP2 (raw fluorescence reading): 11621
SfurOBP2; ligand concentration 20 (unit not given), replicate column 2 of 3
  Fluorescence competitive binding assay, OBP2 (raw fluorescence reading): 11220
SfurOBP2; ligand concentration 20 (unit not given), replicate column 3 of 3
  Fluorescence competitive binding assay, OBP2 (raw fluorescence reading): 11057

— publication PMC6409085, “Three odorant-binding proteins are involved in the behavioral response of Sogatella furcifera to rice plant volatiles” (PeerJ, 2019)
